System: mouse cancer cells MCA205 IDO1WT
Test: Tumor volume in C57BL/6 mice implanted with MCA205 IDO1WT cells (1-MT and Y15)
Assay type: in vivo
Settings: MCA205 IDO1WT in C57BL/6; Y15 600 μg/animal i.p. once a day from Day 5; 1-MT 4 mg/mL in drinking water from Day 5; n=5; FIG. 23
Description: On Day 0, 5×10^5 mouse cancer cells MCA205 IDO1WT expressing the wild-type mouse IDO1 gene were implanted into the ventral side of C57BL/6 mice.
The FAK inhibitor Y15 (MedChem Express) was dissolved in PBS and administered intraperitoneally once a day from Day 5 at 600 μg/100 μl/animal. In the control group, PBS was intraperitoneally administered at 100 μl/animal once a day from Day 5.
The major axis and minor axis of the tumor were measured every two days. The tumor volume was calculated as 0.5×(major axis)×(minor axis)^2.

With `Cl.Cl.Cl.Cl.Nc1cc(N)c(N)cc1N` [Y15, 1,2,4,5-benzenetetraamine tetrahydrochloride] the tumor volume was “a smaller tumor was formed as compared with the group to which neither drug was administered”.
